Some results are limits rather than exact numbers.

The source of these data is EPA's ToxValDB 9.5 (doi:10.2903/j.efsa.2009.258r).

One series relates to Apis mellifera. The conditions noted are these: acute; oral; unspecified; mortality.
The subject of a further series is Bibionidae. As to conditions: chronic/long-term; duration: 28 days; reproduction.
In another series the test system is Canidae. As to conditions: chronic; duration: 1 years; oral; Dog Other; clinical chemistry.
For another series, the system named is Daphnia magna. As to conditions: chronic/long-term; duration: 21 days; reproduction.
For a further series, the system named is Folsomia candida. As to conditions: chronic/long-term; duration: 28 days.
In a further series the test system is Oryctolagus sp. As to conditions: reproduction developmental; food consumption.
The test system of a further series is Pimephales promelas. The conditions noted are these: chronic/long-term; duration: 28 days; growth.
The next series has as its system Tagia sp. The conditions noted are these: acute; duration: 14 days; mortality.
The test system of the next series is Aphidius rhopalosiphi. Nature of the series: LR50; higher = less toxic. The conditions noted are these: not reported; mortality.

Turning to `O=C(Cc1ccccc1)N/C(=N\OCC1CC1)c1c(C(F)(F)F)ccc(F)c1F` [Cyflufenamid], the LD50 with Apis mellifera is above 100 µg/piece; in the series with Colinus virginianus (acute, oral, mortality) it was above 2000 mg/kg-day; in the series with Rattus norvegicus (acute, oral, mortality) it was above 5000 mg/kg-day. Further, the NOEC was 1 mg/L in the series on Bibionidae; 98 mg/kg-day with Colinus virginianus (reproduction developmental); 0.0406 mg/L with Daphnia magna; above 0.0178 mg/kg in the series with Folsomia candida; 0.024 mg/L in the series on Pimephales promelas; 800 mg/kg-day with Rattus norvegicus (reproduction developmental, mortality). In addition, the NOAEL – broadly, the highest dose or exposure tested at which no adverse effect was seen – in the series with Canidae amounted to 4.1 mg/kg-day; with Oryctolagus sp., 5 mg/kg-day; in the series on Rattus norvegicus (chronic, duration: 2 years, F, histopathology: nonneoplastic) it was 4.4 mg/kg-day; in the series on Rattus norvegicus (chronic, duration: 2 years, M, histopathology: nonneoplastic), 4.4 mg/kg-day; in the series with Rattus norvegicus (reproduction developmental, reproduction) it was 57 mg/kg-day. For the same compound, the LC50 in the series with Colinus virginianus (acute, oral, diet, mortality) is above 743 mg/kg-day; with Tagia sp. it was above 500 mg/kg. In the series on Aphidius rhopalosiphi, this compound came in with an LR50 of 50 g/ha.
